The record followed here is patent US11111251B2, “Positive allosteric modulators of the muscarinic acetylcholine receptor M1” (Vanderbilt University, priority 2016, dated 2021).

This experiment addresses T1, human mAChR M1 (Homo sapiens, UniProt P11229).
T1 sequence (P11229 1-460): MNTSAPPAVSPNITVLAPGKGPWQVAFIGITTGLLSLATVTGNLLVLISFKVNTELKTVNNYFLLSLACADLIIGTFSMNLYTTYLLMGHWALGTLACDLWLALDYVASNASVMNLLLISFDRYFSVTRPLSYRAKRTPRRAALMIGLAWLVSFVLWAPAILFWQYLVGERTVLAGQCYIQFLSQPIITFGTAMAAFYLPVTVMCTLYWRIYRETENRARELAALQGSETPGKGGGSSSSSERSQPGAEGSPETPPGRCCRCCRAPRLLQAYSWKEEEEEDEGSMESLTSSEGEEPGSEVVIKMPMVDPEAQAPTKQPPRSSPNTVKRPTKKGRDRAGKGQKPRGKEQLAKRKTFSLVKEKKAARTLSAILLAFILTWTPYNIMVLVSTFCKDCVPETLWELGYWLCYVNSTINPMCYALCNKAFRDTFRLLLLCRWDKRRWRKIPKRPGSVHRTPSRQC
The experiment can be described thus: mAChR M1 cell-based functional assay: calcium mobilization, positive allosteric modulator mode (increase in EC20 acetylcholine response). The following applies: Table 2, human M1; for EC50: read-out: Human M1 EC50; for Emax: read-out: Human M1 Emax (%). Put shortly: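 Calcium-flux assay in CHO-K1 cells stably expressing human M1, loaded with Fluo-4 AM (50 min, 37 °C) and read at 1 Hz. Compound (11-point, 1:3 series) was added at 4 s, EC20 acetylcholine at 144 s and EC80 at 230 s. PAM activity is the concentration-dependent rise in the EC20 response, fitted with a four-parameter logistic.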

For the compound `Cc1nc(-c2ccc(Cc3cc(C(=O)N[C@H]4CCOC4)nc4ccsc34)cc2)cs1` [Compound 184, 7-[[4-(2-methylthiazol-4-yl)phenyl]methyl]-N-[(3S)-tetrahydrofuran-3-yl]thieno[3,2-b]pyridine-5-carboxamide], the 50% effective concentration (EC50) is 3.61 µM and the Emax was determined as 68.5%.

For the compound `COCCCNC(=O)c1cc(Cc2ccc(-c3cncs3)cc2)c2sccc2n1` [Compound 404, N-(3-methoxypropyl)-7-[(4-thiazol-5-ylphenyl)methyl]thieno[3,2-b]pyridine-5-carboxamide], the 50% effective concentration (EC50) is 3.57 µM and the maximal response (Emax) is 56.7%.

With `O=C(NC1CC(F)C1)c1cc(Cc2ccc(-n3cccn3)cc2)c2sccc2n1` (centres unmarked) [Compound 280, N-(3-fluorocyclobutyl)-7-[(4-pyrazol-1-ylphenyl)methyl]thieno[3,2-b]pyridine-5-carboxamide], the 50% effective concentration (EC50) amounted to 0.297 µM and the maximal response (Emax) came to 71.8%.

For the compound `O=C(NC1CCCOC1)c1cc(Cc2ccc(-n3cccn3)cc2)c2sccc2n1` (centres unmarked) [Compound 447, 7-[(4-pyrazol-1-ylphenyl)methyl]-N-tetrahydropyran-3-yl-thieno[3,2-b]pyridine-5-carboxamide], the EC50 is 1.1 µM and the Emax was 73.9%.

Take `O=C(NC1CC(F)C1)c1cc(Cc2ccc(-c3cscn3)cc2)c2sccc2n1` (centres unmarked) [Compound 205, N-(3-fluorocyclobutyl)-7-[(4-thiazol-4-ylphenyl)methyl]thieno[3,2-b]pyridine-5-carboxamide]: the EC50 came to 1.72 µM and the maximum response (Emax) was determined as 78%.

In the case of `O=C(N[C@H]1CCCOC1)c1cc(Cc2ccc(-c3cscn3)cc2)c2sccc2n1` [Compound 213, N-([3S)-tetrahydropyran-3-yl]-7-[(4-thiazol-4-ylphenyl)methyl]thieno[3.2-b]pyridine-5-carboxamide], the concentration giving a half-maximal response (EC50) came out at 1.12 µM and the Emax stood at 61.2%.

As to `Cc1nc(-c2ccc(Cc3cc(C(=O)NC4CCOCC4)nc4ccsc34)cc2)co1` [Compound 230, 7-[[4-(2-methyloxazol-4-yl)phenyl]methyl]-N-tetrahydropyran-4-yl-thieno[3,2-b]pyridine-5-carboxamide], the concentration for a half-maximal effect (EC50) worked out at 0.175 µM and the maximal effect (Emax) was 77.7%.

Consider `Cc1csc2c(Cc3ccc(-n4cccn4)cc3)cc(C(=O)N(C)C3CCOCC3)nc12` [Compound 121, N,3-dimethyl-7-[(4-pyrazol-1-ylphenyl)methyl]-N-tetrahydropyran-4-yl-thieno[3,2-b]pyridine-5-carboxamide], for which the concentration giving a half-maximal response (EC50) stood at 6.76 µM and the Emax came out at 54.9%.

In the case of `Cc1nc(-c2ccc(Cc3cc(C(=O)NC4(C)COC4)nc4ccsc34)cc2)cs1` [Compound 177, N-(3-methyloxetan-3-yl)-7-[[4-(2-methylthiazol-4-yl)phenyl]methyl]thieno[3,2-b]pyridine-5-carboxamide], the EC50 is above 10 µM and the Emax was determined as 39.7%.

Consider `Cc1csc2c(Cc3ccc(-c4ccn(C)n4)cc3)cc(C(=O)NC3CC4(COC4)C3)nc12` [Compound 304, 3-methyl-7-[[4-(1-methylpyrazol-3-yl)phenyl]methyl]-N-(2-oxaspiro[3.3]heptan-6-yl)thieno[3,2-b]pyridine-5-carboxamide], for which the EC50 came out at 0.568 µM and the Emax is 72.3%.

Consider `O=C(NC1COC1)c1cc(Cc2ccc(-c3cncs3)cc2)c2sccc2n1` [Compound 402, N-(oxetan-3-yl)-7-[(4-thiazol-5-ylphenyl)methyl]thieno[3,2-b]pyridine-5-carboxamide], for which the half-maximal effective concentration (EC50) was above 10 µM and the Emax was determined as 41.7%.

On to `Cn1ccc(-c2ccc(Cc3cc(C(=O)NC4CC(F)(F)C4)nc4ccsc34)cn2)n1` [Compound 420, N-(3,3-difluorocyclobutyl)-7-[[6-(1-methylpyrazol-3-yl)-3-pyridyl]methyl]thieno[3,2-b]pyridine-5-carboxamide], for which the EC50 turned out to be 0.4 µM and the Emax is 64.2%.

Consider `Cc1csc2c(Cc3ccc(-c4ccn(C)n4)cc3)cc(C(=O)N[C@H]3CCOC3)nc12` [Compound 306], for which the concentration giving a half-maximal response (EC50) came to 2.92 µM and the Emax is 79.3%.

On to `Cn1cc(-c2ccc(Cc3cc(C(=O)NC4CCOC(C)(C)C4)nc4ccsc34)cc2)cn1` (centres unmarked) [Compound 381, N-(2,2-dimethyltetrahydropyran-4-yl)-7-[[4-(1-methylpyrazol-4-yl)phenyl]methyl]thieno[3,2-b]pyridine-5-carboxamide], for which the concentration for a half-maximal effect (EC50) was 0.0981 µM and the maximal effect (Emax) is 60.4%.

In the case of `Cc1csc2c(Cc3ccc(-n4cccn4)cc3)cc(C(=O)NC[C@H]3CCCO3)nc12` [Compound 322, 3-methyl-7-[(4-pyrazol-1-ylphenyl)methyl]-N-[[(2R)-tetrahydrofuran-2-yl]methyl]thieno[3,2-b]pyridine-5-carboxamide], the EC50 is 0.62 µM and the maximum response (Emax) was 75.1%.

For `Cn1ccc(-c2ccc(Cc3cc(C(=O)N[C@H]4CCCC[C@@H]4O)nc4ccsc34)cc2)n1` [Compound 256, N-[(1S,2S)-2-hydroxycyclohexyl]-7-[[4-(1-methylpyrazol-3-yl)phenyl]methyl]thieno[3,2-b]pyridine-5-carboxamide], the half-maximal effective concentration (EC50) stood at 0.0576 µM and the maximum response (Emax) worked out at 50%.

Regarding `Cn1cc(-c2ccc(Cc3cc(C(=O)NC4CCOCC4)nc4ccn(C)c34)cn2)cn1` [Compound 470, 1-methyl-7-[[6-(1-methylpyrazol-4-yl)-3-pyridyl]methyl]-N-tetrahydropyran-4-yl-pyrrolo[3,2-b]pyridine-5-carboxamide], the EC50 stood at 0.223 µM and the maximum response (Emax) worked out at 86%.

Take `Cc1ccc(Cc2cc(C(=O)N[C@@H]3CCCNC3)nc3ccsc23)cn1` [Compound 265, 7-[(6-methyl-3-pyridyl)methyl]-N-[(3R)-3-piperidyl]thieno[3,2-b]pyridine-5-carboxamide]: the half-maximal effective concentration (EC50) was above 10 µM and the maximum response (Emax) was determined as 56.4%.

`O=C(NC1CCOCC1)c1cc(Cc2ccc(-n3cccn3)cc2)c2sccc2n1` [Compound 228, 7-[(4-pyrazol-1-ylphenyl)methyl]-N-tetrahydropyran-4-yl-thieno[3,2-b]pyridine-5-carboxamide]: the EC50 is 0.16 µM and the Emax amounted to 81.8%.

As for `Cn1cc(-c2ccc(Cc3cc(C(=O)N[C@H]4CCCCC[C@@H]4O)nc4ccsc34)cn2)cn1` [Compound 226, N-[(1S,2S)-2-hydroxycycloheptyl]-7-[[6-(1-methylpyrazol-4-yl)-3-pyridyl]methyl]thieno[3,2-b]pyridine-5-carboxamide], the half-maximal effective concentration (EC50) is 0.00936 µM and the maximal effect (Emax) worked out at 66.2%.

`O=C(N[C@@H]1CC[C@H]1O)c1cc(Cc2c(F)cc(-c3cscn3)cc2F)c2sccc2n1` [Compound 274, 7-[(2,6-difluoro-4-thiazol-4-yl-phenyl)methyl]-N-[(1R,2R)-2-hydroxycyclobutyl]thieno[3,2-b]pyridine-5-carboxamide]: the EC50 is above 10 µM and the maximal response (Emax) turned out to be 46.8%.

As to `O=C(NC1CCOCC1)c1ccc(Cc2cc(C(=O)NC3CCOCC3)nc3ccsc23)cc1` [Compound 407, N-tetrahydropyran-4-yl-7-[[4-(tetrahydropyran-4-ylcarbamoyl)phenyl]methyl]thieno[3,2-b]pyridine-5-carboxamide], the EC50 was found to be 0.368 µM and the Emax stood at 69.9%.
